Measurements published in patent publication US10869864B2, “Combinations for the treatment of cancer” (IGNYTA, INC., priority 2015, dated 2020).

Columns and labels:
[1] = test system: KM-12 TPM3-NTRK1 G595R cells; assay: Tumor growth in athymic nu/nu mice implanted subcutaneously with KM-12 TPM3-NTRK1 G595R cells; type: in vivo; settings: for Average tumor volume / Percent tumor growth inhibition (% TGI): entrectinib 60 mg/kg, trametinib 1 mg/kg, p.o. q.d.
Procedure: Athymic nu/nu mice, 6-7 weeks old, female mice were implanted subcutaneously (right flank) with 2 million KM-12 TPM3-NTRK1 G595R cells/mouse. Animals were randomized once the mean tumor volume reached ˜150 mm^3.
Trametinib in vivo oral dosing solution was made by dissolving trametinib in a solution of DMSO (Lot #: SHBG1596V, D8418-100ML, Sigma), PEG 400 (Lot #: MKBX3961V, 202398-500G, Sigma), Tween 80 (Lot #: MKB58228V, P4780-100ML, Sigma) and water. The final concentration of trametinib was 0.1 mg/mL and the amounts of each component in the resulting solution were 3.3% DMSO, 16.7% PEG 400, 15% Tween 80 and 65% water, with the water being added just prior to dosing.
Athymic nu/nu female mice between 6-7 weeks of age were ordered from Charles River. Animals were allowed to acclimate 3 days prior to the start of the study (e.g., cell implantation). Animals were housed in irradiated, individual HEPA ventilated cages (Innocage® IVC, Innovive USA) on a 12-hour light-dark cycle at 68-79° F. and 30-70% humidity. Animals were provided with irradiated chow (Teklad 2920X) and acidified drinking water (Innovive) ad libitum as per the animal care and use protocol established at Explora Biolabs (Ignyta ACUP # EB15-050). Animals were identified by uniquely numbered ear-tags.
(§1) KM12 cells were cultured, harvested, and suspended in 1:1 FBS free culture media:martigel at a concentration of 10 million cells/mL. Cells were implanted under the skin on the right flank of each mouse on day 0. The implantation volume was 200 μL/mouse. Tumors grew until the mean tumor volume reached approximately 130 mm^3. On day 8 mice were randomized into 6 treatment groups (10 mice/group) and treatment began. […] The final treatment for all groups was administered on day 17, for a total of 10 doses. The final tumor and body weight measurements were taken on the final day of dosing, day 17.
(§2) Tumors measurements and body weights were collected 2×/week over the duration of the study. Tumor growth was assessed by caliper and tumor volumes were calculated using the equation (1). Animals with tumor volumes >2,000 mm^3 were removed from study. Volume (mm^3)=[length (mm)×width (mm)×width (mm)]/2 (1)
The percentage of tumor growth inhibition (% TGI) was calculated for each treatment group at each tumor measurement. The % TGI values were calculated using equation (2) below, where TVvehicle is the tumor volume for the vehicle-treated animals at a specified time point, TVinitial is the initial tumor volume at the start of the treatment and TVtreatment is the tumor volume of the treatment group at a specified end-point time. Differences in tumor volumes were assessed by ANOVA using GraphPad Prism (version 6.07, GraphPad Software, Inc.). % TGI=[(TVvehicle−TVtreatment)/(TVvehicle−TVinitial)]×100

[2] = Tolerability, body weight and toxicity in the KM-12 TPM3-NTRK1 G595R mouse study; settings: any animals receiving trametinib 1 mg/kg p.o. q.d.
Procedure: as §1, §2

[3] = day 8 after cell implantation (randomization, treatment began)
[4] = day 8 after cell implantation (treatment began)
[5] = day 17 after cell implantation (10 doses)
[6] = day 17 after cell implantation (final day, 10 doses)

SMILES	Average tumor volume [1, 3]	Percent tumor growth inhibition (% TGI) [1, 4]	Average tumor volume ([1]; day 11 after cell implantation)	Percent tumor growth inhibition (% TGI) ([1]; day 11 after cell implantation)	Average tumor volume ([1]; day 14 after cell implantation)	Percent tumor growth inhibition (% TGI) ([1]; day 14 after cell implantation)	Percent tumor growth inhibition (% TGI) [1, 5]	Average tumor volume [1, 6]	tumor volume difference from vehicle, two-way ANOVA ([1]; by day 14, p<0.05)	tumor volume difference from vehicle, one-way ANOVA ([1]; days 14 and 17)	Toxicity (evaluated based on body weight loss) [2]
CN1CCN(c2ccc(C(=O)Nc3n[nH]c4ccc(Cc5cc(F)cc(F)c5)cc34)c(NC3CCOCC3)c2)CC1 [Entrectinib, N-[5-(3,5-difluorobenzyl)-1H-indazol-3-yl]-4-(4-methyl-piperazin-1-yl)-2-(tetrahydro-pyran-4-ylamino)-benzamide]	148.2 mm^3	100.0%	403.2 mm^3	−15.1%	934.5 mm^3	−4.5%	−11.6%	2057.8 mm^3	–	–	–
CC(=O)Nc1cccc(-n2c(=O)n(C3CC3)c(=O)c3c(Nc4ccc(I)cc4F)n(C)c(=O)c(C)c32)c1 [Trametinib]	146.7 mm^3	100.0%	254.8 mm^3	51.5%	373.1 mm^3	70.0%	76.7%	544.9 mm^3	significantly different from vehicle	Differences were found	Toxicity was observed
